According to paper PMC7265341, “Quantifying CDK inhibitor selectivity in live cells” (Nature Communications, 2020):
Like-named read-outs stand apart in the source and are kept apart here.

Legend:
CDK15/Cyclin Y = CDK15/Cyclin Y (Homo sapiens, UniProt Q96Q40); experiment: NanoBRET live-cell target engagement, NanoLuc-CDK15/Cyclin Y in HEK-293; assay type: binding; conditions: CDK15/Y, read-out: Inhibition at 10µM (%)
CDK1/Cyclin E1 = CDK1/Cyclin E1 (Homo sapiens, UniProt P06493); experiment: NanoBRET live-cell target engagement, CDK1-NanoLuc/Cyclin E1 in HEK-293; assay type: binding; conditions: CDK1/E1, read-out: Inhibition at 10µM (%)
CDK9/Cyclin K = CDK9/Cyclin K (Homo sapiens, UniProt P50750); experiment: NanoBRET live-cell target engagement, NanoLuc-CDK9/Cyclin K in HEK-293; assay type: binding; conditions: CDK9/K, read-out: Inhibition at 10µM (%)
CDK19/Cyclin C = CDK19/Cyclin C (Homo sapiens, UniProt Q9BWU1); experiment: NanoBRET live-cell target engagement, NanoLuc-CDK19/Cyclin C in HEK-293; conditions: read-out: Inhibition at 10µM (%), CDK19/C
CDK8/Cyclin C = CDK8/Cyclin C (Homo sapiens, UniProt P49336); experiment: NanoBRET live-cell target engagement, NanoLuc-CDK8/Cyclin C in HEK-293; assay type: binding; conditions: CDK8/C, read-out: Inhibition at 10µM (%)
CDK3/Cyclin E1 = CDK3/Cyclin E1 (Homo sapiens, UniProt Q00526); experiment: NanoBRET live-cell target engagement, CDK3-NanoLuc/Cyclin E1 in HEK-293; assay type: binding; conditions: CDK3/E1, read-out: Inhibition at 10µM (%)
CDK2/Cyclin E1 = CDK2/Cyclin E1 (Homo sapiens, UniProt P24941); experiment: NanoBRET live-cell target engagement, CDK2-NanoLuc/Cyclin E1 in HEK-293; assay type: binding; conditions: read-out: Inhibition at 10µM (%), CDK2/E1
CDK20/Cyclin H = CDK20/Cyclin H (Homo sapiens, UniProt Q8IZL9); experiment: NanoBRET live-cell target engagement, NanoLuc-CDK20/Cyclin H in HEK-293; assay type: binding; conditions: CDK20/H, read-out: Inhibition at 10µM (%)
CDK12/Cyclin K = CDK12/Cyclin K (Homo sapiens, UniProt Q9NYV4); experiment: NanoBRET live-cell target engagement, CDK12-NanoLuc/Cyclin K in HEK-293; assay type: binding; conditions: CDK12/K, read-out: Inhibition at 10µM (%)
CDK16/Cyclin Y = CDK16/Cyclin Y (Homo sapiens, UniProt Q00536); experiment: NanoBRET live-cell target engagement, CDK16-NanoLuc/Cyclin Y in HEK-293; assay type: binding; conditions: CDK16/Y; for IC50: read-out: IC50; for inhibition at 10 µM: read-out: Inhibition at 10µM (%)
CDK4/Cyclin D1 = CDK4/Cyclin D1 (Homo sapiens, UniProt P11802); experiment: NanoBRET live-cell target engagement, NanoLuc-CDK4/Cyclin D1 in HEK-293; assay type: binding; conditions: CDK4/D1; for IC50: read-out: IC50; for inhibition at 10 µM: read-out: Inhibition at 10µM (%)
CDK5/CDK5R1 = CDK5/CDK5R1 (Homo sapiens, UniProt Q00535); experiment: NanoBRET live-cell target engagement, CDK5-NanoLuc/CDK5R1 in HEK-293; assay type: binding; conditions: CDK5/CDK5R1, read-out: Inhibition at 10µM (%)
CDK17/Cyclin Y = CDK17/Cyclin Y (Homo sapiens, UniProt Q00537); experiment: NanoBRET live-cell target engagement, CDK17-NanoLuc/Cyclin Y in HEK-293; assay type: binding; conditions: CDK17/Y, read-out: Inhibition at 10µM (%)
CDK14/Cyclin Y = CDK14/Cyclin Y (Homo sapiens, UniProt O94921); experiment: NanoBRET live-cell target engagement, CDK14-NanoLuc/Cyclin Y in HEK-293; assay type: binding; conditions: CDK14/Y, read-out: Inhibition at 10µM (%)
CDK13/Cyclin K = CDK13/Cyclin K (Homo sapiens, UniProt Q14004); experiment: NanoBRET live-cell target engagement, CDK13-NanoLuc/Cyclin K in HEK-293; assay type: binding; conditions: CDK13/K, read-out: Inhibition at 10µM (%)
CDK7 = CDK7 (Homo sapiens, UniProt P50613); experiment: NanoBRET live-cell target engagement, NanoLuc-CDK7 in HEK-293; assay type: binding; conditions: CDK7; for IC50: read-out: IC50; for inhibition at 10 µM: read-out: Inhibition at 10µM (%)
CDK11B/Cyclin L2 = CDK11B/Cyclin L2 (Homo sapiens, UniProt P21127); experiment: NanoBRET live-cell target engagement, CDK11B-NanoLuc/Cyclin L2 in HEK-293; assay type: binding; conditions: CDK11b/L2, read-out: Inhibition at 10µM (%)
CDK10/Cyclin L2 = CDK10/Cyclin L2 (Homo sapiens, UniProt Q15131); experiment: NanoBRET live-cell target engagement, CDK10-NanoLuc/Cyclin L2 in HEK-293; conditions: read-out: Inhibition at 10µM (%), CDK10/L2
CDK11A/Cyclin L2 = biological target: T1, CDK11A/Cyclin L2 (Homo sapiens, UniProt Q9UQ88); experiment: NanoBRET live-cell target engagement, CDK11A-NanoLuc/Cyclin L2 in HEK-293; assay type: binding; conditions: CDK11a/L2, read-out: Inhibition at 10µM (%)
T1 sequence (Q9UQ88 1-783): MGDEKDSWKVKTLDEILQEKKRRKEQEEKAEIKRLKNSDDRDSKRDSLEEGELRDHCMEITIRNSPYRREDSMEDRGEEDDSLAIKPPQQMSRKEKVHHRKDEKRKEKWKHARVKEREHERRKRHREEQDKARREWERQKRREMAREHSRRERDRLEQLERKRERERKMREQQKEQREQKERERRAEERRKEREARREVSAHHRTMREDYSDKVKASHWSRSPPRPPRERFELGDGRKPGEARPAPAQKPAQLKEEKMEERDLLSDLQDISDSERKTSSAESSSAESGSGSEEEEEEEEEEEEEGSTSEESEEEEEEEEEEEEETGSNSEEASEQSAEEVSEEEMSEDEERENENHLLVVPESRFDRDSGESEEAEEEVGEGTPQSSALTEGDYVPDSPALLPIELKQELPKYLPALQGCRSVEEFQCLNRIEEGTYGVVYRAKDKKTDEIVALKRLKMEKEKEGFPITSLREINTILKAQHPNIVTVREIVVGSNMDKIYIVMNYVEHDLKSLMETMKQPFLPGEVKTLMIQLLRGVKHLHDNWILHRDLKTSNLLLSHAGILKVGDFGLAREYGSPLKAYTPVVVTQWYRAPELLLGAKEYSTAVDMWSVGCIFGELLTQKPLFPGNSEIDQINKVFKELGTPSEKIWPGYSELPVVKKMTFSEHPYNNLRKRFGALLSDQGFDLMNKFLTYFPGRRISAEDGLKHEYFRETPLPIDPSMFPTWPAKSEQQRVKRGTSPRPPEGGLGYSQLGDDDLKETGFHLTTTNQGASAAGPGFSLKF

CDK17/Cyclin Y, sequence (Q00537 whole entry): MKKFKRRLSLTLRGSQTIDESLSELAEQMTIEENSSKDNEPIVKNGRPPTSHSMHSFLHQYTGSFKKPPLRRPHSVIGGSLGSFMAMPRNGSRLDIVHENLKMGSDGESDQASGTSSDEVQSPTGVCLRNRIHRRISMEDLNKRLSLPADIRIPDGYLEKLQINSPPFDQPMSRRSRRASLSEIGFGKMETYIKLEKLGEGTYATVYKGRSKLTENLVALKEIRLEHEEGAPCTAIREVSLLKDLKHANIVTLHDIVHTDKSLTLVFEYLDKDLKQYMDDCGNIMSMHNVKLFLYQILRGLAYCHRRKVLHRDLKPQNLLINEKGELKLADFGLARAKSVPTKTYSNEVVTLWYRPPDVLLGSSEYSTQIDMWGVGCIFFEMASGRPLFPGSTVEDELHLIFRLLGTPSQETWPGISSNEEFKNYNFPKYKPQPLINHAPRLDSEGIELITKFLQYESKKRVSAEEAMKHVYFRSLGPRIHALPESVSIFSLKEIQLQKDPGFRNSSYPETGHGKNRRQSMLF
CDK17/Cyclin Y, sequence (Q8ND76 whole entry partner): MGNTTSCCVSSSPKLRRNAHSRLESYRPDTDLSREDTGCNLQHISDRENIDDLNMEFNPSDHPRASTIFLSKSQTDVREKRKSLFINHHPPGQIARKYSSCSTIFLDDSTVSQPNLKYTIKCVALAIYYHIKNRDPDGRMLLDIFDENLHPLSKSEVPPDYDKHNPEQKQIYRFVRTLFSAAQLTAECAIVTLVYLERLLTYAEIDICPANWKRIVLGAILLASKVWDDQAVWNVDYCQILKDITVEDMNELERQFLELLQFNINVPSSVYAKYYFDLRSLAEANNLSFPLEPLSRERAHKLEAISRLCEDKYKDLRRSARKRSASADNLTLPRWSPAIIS
CDK4/Cyclin D1, sequence (P11802 whole entry): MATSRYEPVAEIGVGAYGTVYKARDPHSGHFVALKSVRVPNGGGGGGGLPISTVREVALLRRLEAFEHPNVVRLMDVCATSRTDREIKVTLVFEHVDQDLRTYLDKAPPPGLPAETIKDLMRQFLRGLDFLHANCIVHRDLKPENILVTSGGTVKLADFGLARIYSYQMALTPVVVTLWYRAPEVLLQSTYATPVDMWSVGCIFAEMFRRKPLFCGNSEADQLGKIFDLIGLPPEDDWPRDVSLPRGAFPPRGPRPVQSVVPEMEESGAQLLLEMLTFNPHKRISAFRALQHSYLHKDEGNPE
CDK4/Cyclin D1, sequence (P24385 whole entry partner): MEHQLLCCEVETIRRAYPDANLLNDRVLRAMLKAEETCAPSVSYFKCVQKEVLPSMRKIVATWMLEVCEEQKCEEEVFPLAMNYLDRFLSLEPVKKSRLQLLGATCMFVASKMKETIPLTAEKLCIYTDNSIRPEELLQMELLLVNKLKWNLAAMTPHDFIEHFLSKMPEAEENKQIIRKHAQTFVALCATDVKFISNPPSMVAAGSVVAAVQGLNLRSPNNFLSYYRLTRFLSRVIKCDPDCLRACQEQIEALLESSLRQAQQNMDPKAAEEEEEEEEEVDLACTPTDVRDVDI
CDK10/Cyclin L2, sequence (Q15131 whole entry): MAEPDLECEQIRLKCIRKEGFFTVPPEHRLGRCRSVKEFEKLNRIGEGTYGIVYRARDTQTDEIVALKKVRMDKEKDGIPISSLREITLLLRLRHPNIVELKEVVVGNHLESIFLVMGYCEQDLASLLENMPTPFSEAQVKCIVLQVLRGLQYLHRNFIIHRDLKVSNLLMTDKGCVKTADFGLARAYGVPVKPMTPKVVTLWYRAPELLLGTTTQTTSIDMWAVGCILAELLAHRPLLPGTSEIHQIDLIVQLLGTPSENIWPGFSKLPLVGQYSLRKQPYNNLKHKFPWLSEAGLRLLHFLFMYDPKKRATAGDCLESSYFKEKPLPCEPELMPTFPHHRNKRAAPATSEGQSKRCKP
CDK16/Cyclin Y, sequence (Q00536 whole entry): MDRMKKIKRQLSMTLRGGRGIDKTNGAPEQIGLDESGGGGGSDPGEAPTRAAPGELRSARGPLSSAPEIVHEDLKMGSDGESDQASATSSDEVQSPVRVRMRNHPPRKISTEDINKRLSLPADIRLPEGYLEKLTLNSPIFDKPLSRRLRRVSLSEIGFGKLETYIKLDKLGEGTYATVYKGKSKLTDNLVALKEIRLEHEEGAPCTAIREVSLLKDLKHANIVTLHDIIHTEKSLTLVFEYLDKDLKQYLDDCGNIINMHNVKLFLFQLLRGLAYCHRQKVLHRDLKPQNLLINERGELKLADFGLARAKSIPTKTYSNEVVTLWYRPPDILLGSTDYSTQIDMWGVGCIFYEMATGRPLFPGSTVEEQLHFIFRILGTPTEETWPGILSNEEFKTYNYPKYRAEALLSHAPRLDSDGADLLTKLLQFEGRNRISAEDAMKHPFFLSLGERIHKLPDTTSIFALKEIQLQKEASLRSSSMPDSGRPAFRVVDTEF
CDK16/Cyclin Y, sequence (Q8ND76 whole entry partner): as the sequence (Q8ND76 whole entry partner) above
CDK13/Cyclin K, sequence (O75909 whole entry): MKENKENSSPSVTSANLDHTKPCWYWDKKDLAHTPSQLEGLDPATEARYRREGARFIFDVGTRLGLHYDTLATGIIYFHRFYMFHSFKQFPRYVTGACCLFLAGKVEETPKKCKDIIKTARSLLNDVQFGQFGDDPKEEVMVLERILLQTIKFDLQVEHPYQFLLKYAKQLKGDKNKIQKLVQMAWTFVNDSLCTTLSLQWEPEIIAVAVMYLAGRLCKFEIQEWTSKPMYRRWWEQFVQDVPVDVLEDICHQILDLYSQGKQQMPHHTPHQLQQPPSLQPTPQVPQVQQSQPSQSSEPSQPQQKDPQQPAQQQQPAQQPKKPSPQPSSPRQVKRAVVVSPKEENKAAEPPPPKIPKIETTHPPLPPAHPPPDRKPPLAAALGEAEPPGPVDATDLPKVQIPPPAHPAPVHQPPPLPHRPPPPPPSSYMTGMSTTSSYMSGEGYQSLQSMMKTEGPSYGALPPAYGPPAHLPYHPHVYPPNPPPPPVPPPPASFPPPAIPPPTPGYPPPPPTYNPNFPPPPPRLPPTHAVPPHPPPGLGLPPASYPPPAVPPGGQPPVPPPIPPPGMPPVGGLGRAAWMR
CDK13/Cyclin K, sequence (Q14004 other isoform, or with tags, fused parts or gaps): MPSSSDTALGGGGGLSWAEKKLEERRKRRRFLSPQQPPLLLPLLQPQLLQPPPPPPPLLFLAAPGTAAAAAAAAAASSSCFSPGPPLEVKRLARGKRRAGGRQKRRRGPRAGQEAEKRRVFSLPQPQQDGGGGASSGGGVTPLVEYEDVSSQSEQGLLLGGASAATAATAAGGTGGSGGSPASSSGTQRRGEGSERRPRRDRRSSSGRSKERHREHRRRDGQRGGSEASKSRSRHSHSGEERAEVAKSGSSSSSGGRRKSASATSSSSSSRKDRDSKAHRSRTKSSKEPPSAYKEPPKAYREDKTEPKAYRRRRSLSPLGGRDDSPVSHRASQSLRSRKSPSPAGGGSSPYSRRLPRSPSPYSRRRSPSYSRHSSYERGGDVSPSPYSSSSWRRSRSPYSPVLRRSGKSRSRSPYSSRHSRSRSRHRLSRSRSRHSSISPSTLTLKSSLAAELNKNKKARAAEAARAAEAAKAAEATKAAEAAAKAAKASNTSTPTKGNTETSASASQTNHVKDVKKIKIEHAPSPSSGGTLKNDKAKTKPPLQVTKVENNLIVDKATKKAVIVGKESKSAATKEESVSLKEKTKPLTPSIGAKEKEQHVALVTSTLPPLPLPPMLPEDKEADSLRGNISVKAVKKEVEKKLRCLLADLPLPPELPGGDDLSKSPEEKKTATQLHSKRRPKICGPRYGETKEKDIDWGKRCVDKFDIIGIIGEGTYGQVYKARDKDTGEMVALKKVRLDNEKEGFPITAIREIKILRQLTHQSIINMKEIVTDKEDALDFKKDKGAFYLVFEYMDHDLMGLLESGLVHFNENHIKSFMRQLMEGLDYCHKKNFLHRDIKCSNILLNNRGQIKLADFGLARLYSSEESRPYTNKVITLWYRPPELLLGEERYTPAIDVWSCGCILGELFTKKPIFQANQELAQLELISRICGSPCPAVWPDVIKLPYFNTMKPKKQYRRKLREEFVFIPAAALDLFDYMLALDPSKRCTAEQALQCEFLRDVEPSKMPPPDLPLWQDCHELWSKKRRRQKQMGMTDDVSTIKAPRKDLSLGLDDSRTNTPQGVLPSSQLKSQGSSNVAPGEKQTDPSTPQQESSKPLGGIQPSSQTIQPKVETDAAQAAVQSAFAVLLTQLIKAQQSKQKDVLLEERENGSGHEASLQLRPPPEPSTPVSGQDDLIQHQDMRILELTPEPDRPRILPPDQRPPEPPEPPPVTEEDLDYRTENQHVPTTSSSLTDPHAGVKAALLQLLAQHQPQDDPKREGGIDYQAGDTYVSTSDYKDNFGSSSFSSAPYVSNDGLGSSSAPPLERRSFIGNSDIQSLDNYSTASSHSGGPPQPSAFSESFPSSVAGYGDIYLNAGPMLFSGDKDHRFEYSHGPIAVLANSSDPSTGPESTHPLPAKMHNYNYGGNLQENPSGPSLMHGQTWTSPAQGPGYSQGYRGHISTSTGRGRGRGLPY
CDK15/Cyclin Y, sequence (Q96Q40 whole entry): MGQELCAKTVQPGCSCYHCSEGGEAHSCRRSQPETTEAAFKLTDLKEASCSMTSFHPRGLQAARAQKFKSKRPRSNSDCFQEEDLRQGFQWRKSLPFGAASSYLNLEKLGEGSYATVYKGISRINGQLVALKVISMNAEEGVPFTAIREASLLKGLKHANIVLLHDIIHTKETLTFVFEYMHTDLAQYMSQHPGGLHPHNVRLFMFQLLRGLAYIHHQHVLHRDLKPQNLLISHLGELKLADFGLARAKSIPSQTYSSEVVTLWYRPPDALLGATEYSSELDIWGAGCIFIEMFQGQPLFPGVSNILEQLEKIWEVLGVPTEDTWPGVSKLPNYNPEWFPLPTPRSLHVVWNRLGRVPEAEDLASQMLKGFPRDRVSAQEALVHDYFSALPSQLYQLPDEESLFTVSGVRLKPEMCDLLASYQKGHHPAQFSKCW
CDK15/Cyclin Y, sequence (Q8ND76 whole entry partner): as the sequence (Q8ND76 whole entry partner) above

N#CCNC(=O)c1ccc(-c2ccnc(Nc3ccc(N4CCOCC4)cc3)n2)cc1 [Momelotinib] was tested, and the inhibition at 10 µM (CDK15/Cyclin Y; average) was 8.1%, the inhibition at 10 µM (CDK15/Cyclin Y; experiment 1) was 12.2% and the inhibition at 10 µM (CDK15/Cyclin Y; experiment 2) was 4%. For the same compound, the inhibition at 10 µM (CDK1/Cyclin E1; average) was 20%, the inhibition at 10 µM (CDK1/Cyclin E1; experiment 1) was 32.3% and the inhibition at 10 µM (CDK1/Cyclin E1; experiment 2) was 7.8%. It also gave an inhibition at 10 µM (CDK9/Cyclin K; average) of 29.7%, an inhibition at 10 µM (CDK9/Cyclin K; experiment 1) of 29.8% and an inhibition at 10 µM (CDK9/Cyclin K; experiment 2) of 29.7%. It also gave an inhibition at 10 µM (CDK19/Cyclin C; average) of 6.1%, an inhibition at 10 µM (CDK19/Cyclin C; experiment 1) of 10.6% and an inhibition at 10 µM (CDK19/Cyclin C; experiment 2) of 1.6%. The inhibition at 10 µM (CDK8/Cyclin C; average) was 2.5%, the inhibition at 10 µM (CDK8/Cyclin C; experiment 1) was 15.9% and the inhibition at 10 µM (CDK8/Cyclin C; experiment 2) was -10.8%. The inhibition at 10 µM (CDK3/Cyclin E1; average) was 28.6%, the inhibition at 10 µM (CDK3/Cyclin E1; experiment 1) was 27.5% and the inhibition at 10 µM (CDK3/Cyclin E1; experiment 2) was 29.8%. For the same compound, the inhibition at 10 µM (CDK2/Cyclin E1; average) was 17.7%, the inhibition at 10 µM (CDK2/Cyclin E1; experiment 1) was 12.1% and the inhibition at 10 µM (CDK2/Cyclin E1; experiment 2) was 23.4%. For the same compound, the inhibition at 10 µM (CDK20/Cyclin H; experiment 1) was 10.6%, the inhibition at 10 µM (CDK20/Cyclin H; experiment 2) was -4.4% and the inhibition at 10 µM (CDK12/Cyclin K; average) was -8.8%. The inhibition at 10 µM (CDK12/Cyclin K; experiment 1) was 5.9%, the inhibition at 10 µM (CDK12/Cyclin K; experiment 2) was -23.5% and the IC50 (CDK16/Cyclin Y; average (± SEM where n=3)) was 450 nM. The IC50 (CDK16/Cyclin Y; experiment 1) was 177 nM, the inhibition at 10 µM (CDK16/Cyclin Y; experiment 1) was 31.8% and the IC50 (CDK16/Cyclin Y; experiment 2) was 730 nM. It also gave an inhibition at 10 µM (CDK16/Cyclin Y; experiment 2) of 64.3%, an IC50 (CDK4/Cyclin D1; average (± SEM where n=3)) of 650 nM and an inhibition at 10 µM (CDK4/Cyclin D1; average) of 45.1%. For the same compound, the IC50 (CDK4/Cyclin D1; experiment 1) was 561 nM, the inhibition at 10 µM (CDK4/Cyclin D1; experiment 1) was 53.4% and the IC50 (CDK4/Cyclin D1; experiment 2) was 746 nM. It also gave an inhibition at 10 µM (CDK4/Cyclin D1; experiment 2) of 36.9%, an inhibition at 10 µM (CDK5/CDK5R1; experiment 1) of 7.6% and an inhibition at 10 µM (CDK5/CDK5R1; experiment 2) of 10%. The inhibition at 10 µM (CDK17/Cyclin Y; average) was 43.1%, the inhibition at 10 µM (CDK17/Cyclin Y; experiment 1) was 26.9% and the inhibition at 10 µM (CDK17/Cyclin Y; experiment 2) was 59.3%. It also gave an inhibition at 10 µM (CDK14/Cyclin Y; average) of 16.5%, an inhibition at 10 µM (CDK14/Cyclin Y; experiment 1) of 15.4% and an inhibition at 10 µM (CDK14/Cyclin Y; experiment 2) of 17.7%. The inhibition at 10 µM (CDK13/Cyclin K; average) was 3.2%, the inhibition at 10 µM (CDK13/Cyclin K; experiment 1) was 4.9% and the inhibition at 10 µM (CDK13/Cyclin K; experiment 2) was 1.4%. The IC50 (CDK7; average (± SEM where n=3)) was 820 nM, the inhibition at 10 µM (CDK7; average) was 50.4% and the IC50 (CDK7; experiment 1) was 760 nM. The inhibition at 10 µM (CDK7; experiment 1) was 28.7%, the IC50 (CDK7; experiment 2) was 880 nM and the inhibition at 10 µM (CDK7; experiment 2) was 72.1%. It also gave an inhibition at 10 µM (CDK11B/Cyclin L2; average) of 52.5%, an inhibition at 10 µM (CDK11B/Cyclin L2; experiment 1) of 32.8% and an inhibition at 10 µM (CDK11B/Cyclin L2; experiment 2) of 72.2%. For the same compound, the inhibition at 10 µM (CDK10/Cyclin L2; average) was 16.4%, the inhibition at 10 µM (CDK10/Cyclin L2; experiment 1) was 15.4% and the inhibition at 10 µM (CDK10/Cyclin L2; experiment 2) was 17.3%. For the same compound, the inhibition at 10 µM (CDK11A/Cyclin L2; average) was 26.4%, the inhibition at 10 µM (CDK11A/Cyclin L2; experiment 1) was 31.7% and the inhibition at 10 µM (CDK11A/Cyclin L2; experiment 2) was 21.1%.
